Reference: ChEMBL document CHEMBL4000207 (Bioorg Med Chem Lett, 2017)
In brackets after ≈: the same amount, converted by molar mass.

Legend:
[1] = Lipophilicity, log D of the compound; format: physicochemical; settings: octanol/water
[2] = Solubility of the compound; format: physicochemical
[3] = in vitro; settings: human, liver microsomes
[4] = in vitro; settings: human, Caco-2
[5] = Intrinsic clearance in rat hepatocytes assessed per million cells; format: ADME, cell-based, Hepatocyte; settings: read-out: CLH
[6] = Clearance in iv dosed rat; format: ADME, organism-based; settings: in vivo
[7] = Half life in iv dosed rat; format: ADME, organism-based; settings: in vivo
[8] = Volume of distribution at steady state in iv dosed rat; format: ADME, organism-based; settings: in vivo, read-out: Vdss
[9] = Oral bioavailability in rat; format: ADME, organism-based; settings: in vivo

logD [1] | solubility [2] [µM] | microsomal CLint [3] [µL/min/mg] | Papp A→B [4] [×10⁻⁶ cm/s] | hepatocyte CLint [5] [µL/min/1e6 cells] | Compound | also measured
2.2 | – | – | – | – | Cn1nc(-c2cnc(N)c(-c3cnn(C(N)=O)c3)n2)nc1C1(c2ccccc2)CC1 | –
4.3 | – | – | – | – | Cn1nc(-c2cnc(N)c(-n3nnc4ccccc43)n2)nc1C1(c2ccccc2)CC1 | –
3 | – | – | – | – | Cn1nc(-c2cnc(N)c(-c3cc[nH]n3)n2)nc1C1(c2ccccc2)CC1 | –
2.8 | – | – | – | – | Cn1nc(-c2cnc(N)c(-n3ccc(C(N)=O)n3)n2)nc1C1(c2ccccc2)CC1 | –
2.5 | – | – | – | – | Cn1nc(-c2cnc(N)c(-c3ccc(F)nc3)n2)nc1C1(c2ccccc2)CC1 | –
2 | – | – | – | – | Cn1nc(-c2cnc(N)c(-c3ccc(N)nc3)n2)nc1C1(c2ccccc2)CC1 | –
2.8 | 11 (≈ 5.12 µg/mL) | 191 | 19 | 157 | CN(C)S(=O)(=O)n1cc(-c2nc(-c3nc(C4(c5ccccc5)CC4)n(C)n3)cnc2N)cn1 | –
1.8 | – | – | – | – | Cn1nc(-c2cnc(N)cn2)nc1C1(c2ccccc2)CC1 | –
2.3 | – | – | – | – | Cc1n[nH]c(C)c1-c1nc(-c2nc(C3(c4ccccc4)CC3)n(C)n2)cnc1N | –
3.6 | 3 (≈ 1.25 µg/mL) | 20 | 24 | 12 | Cn1nc(-c2cnc(N)c(-c3nnc(C(C)(C)C)o3)n2)nc1C1(c2ccccc2)CC1 | –
2.1 | 37 (≈ 13.3 µg/mL) | < 3 | 6.6 | 5 | Cn1nc(-c2cnc(N)c(-c3cn[nH]c3)n2)nc1C1(c2ccccc2)CC1 | –
2.2 | 177 (≈ 72.8 µg/mL) | < 3 | 2 | 2 | Cn1nc(-c2cnc(N)c(-c3ccc(C(N)=O)cc3)n2)nc1C1(c2ccccc2)CC1 | –
2.2 | – | – | – | – | Cn1nc(-c2cnc(N)c(C#N)n2)nc1C1(c2ccccc2)CC1 | –
2.8 | – | – | – | – | Cn1nc(-c2cnc(N)c(-n3cc(C(N)=O)cn3)n2)nc1C1(c2ccccc2)CC1 | –
2.2 | 32 (≈ 13.7 µg/mL) | < 3 | 13 | < 1 | Cn1nc(-c2cnc(N)c(-c3ccc(C(N)=O)c(F)c3)n2)nc1C1(c2ccccc2)CC1 | clearance [6]: 12 mL/min/kg; half-life [7]: 3.4 h; Vd [8]: 2.8 L/kg; bioavailability [9]: 41%
